Reference: PubChem BioAssay (NCI)
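Where inhibition never reached the appropriate level, the endpoint shown equals the highest concentration tested. Otherwise, values were interpolated linearly from a five-concentration, 48-hour dose response in 96-well plates. At the TGI there is no net growth.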 Where a SMILES comes first, the peptide text is derived from it. The star is where a group is joined. OSu = O=C1CCC(=O)N1O*

Key:
Assay in all cases: growth of human tumour cells (NCI), 48 h
HS 578T breast = tested on: HS 578T breast
T-47D breast = tested on: T-47D breast
CCRF-CEM leukemia = tested on: CCRF-CEM leukemia
SR leukemia = tested on: SR leukemia
TK-10 renal = tested on: TK-10 renal
SF-268 CNS = tested on: SF-268 CNS
MOLT-4 leukemia = tested on: MOLT-4 leukemia
MCF7 breast = tested on: MCF7 breast
MDA-N = tested on: MDA-N
EKVX NSCLC = tested on: EKVX NSCLC

SMILES | TGI (HS 578T breast) [µM] | TGI (T-47D breast) [µM] | TGI (CCRF-CEM leukemia) [µM] | TGI (SR leukemia) [µM] | TGI (TK-10 renal) [µM] | TGI (SF-268 CNS) [µM] | TGI (MOLT-4 leukemia) [µM] | TGI (MCF7 breast) [µM] | TGI (MDA-N) [µM] | TGI (EKVX NSCLC) [µM]
C=CCn1c(-c2ccc(Cl)cc2)csc1=Nc1ccccc1OC | > 100 | 8.5 | > 100 | > 100 | > 100 | > 100 | 14.9 | > 100 | > 59.6 | –
Cc1nc(Nc2ccc(Cl)c(Cl)c2)sc1C(=O)/C=C/c1ccc2c(c1)OCO2 | – | > 100 | > 100 | – | 53.6 | 64 | 44.1 | > 100 | – | 87.2
C/C(O[Si](C(C)C)(C(C)C)C(C)C)=C(\C)C(=O)N(C)c1ccccc1Cl | – | > 100 | – | – | > 100 | > 100 | > 100 | – | – | > 100
C=CCCC(=O)C(=[N+]=[N-])C(=O)CCC(=O)c1ccccc1 | > 10 | > 10 | – | > 10 | > 10 | > 10 | > 10 | > 10 | > 10 | > 10
COCOc1cc(OC)ccc1C/C(=N/O)C(=O)OC | > 100 | > 100 | > 100 | – | > 100 | > 100 | > 100 | > 100 | > 100 | > 100
COc1ccc(CCN2C(=O)CC34C=CC(CC3C2=O)O4)cc1OC (stereo not drawn) | – | > 100 | > 100 | > 100 | > 100 | – | > 100 | > 100 | > 100 | > 100
Cc1cn(C2OC(CO)C(O)C2F)c(=O)[nH]c1=O (stereo not drawn) | > 100 | > 100 | > 100 | – | > 100 | > 100 | > 100 | > 100 | > 100 | > 100
COc1ccc(/C(Cl)=C(\C=O)c2ccc(Cl)cc2)cc1OC | – | – | 10.3 | 5.81 | 31.1 | > 100 | 6.62 | – | – | > 100
CCOc1cc(-c2nc3cc(F)ccc3s2)ccc1O | – | 28.1 | 18 | – | 34 | 31.2 | – | 23 | 31.7 | 24.4
O=C(C1OC1c1cccc([N+](=O)[O-])c1)C12CC3CC(CC(C3)C1)C2 (stereo not drawn) | 14.3 | 26.3 | 13.1 | – | 32.7 | 9.18 | > 22.8 | 12.8 | 11.9 | 27
CC12CCC(CC1(Cl)Cl)C2 (stereo not drawn) | > 100 | > 100 | > 100 | > 100 | > 100 | > 100 | > 100 | > 100 | – | > 100
Cc1ccc(SCC(OCn2cnc3c(Cl)nc(N)nc32)[C@H](C)F)cc1 (stereo partly drawn) | > 100 | > 100 | > 100 | > 100 | > 100 | > 100 | > 100 | > 100 | > 100 | –
COc1cc(OC)c(C2(c3c(OC(C)C)c(=O)c3=O)SCCCS2)cc1OC | > 100 | > 100 | > 100 | > 100 | > 100 | > 100 | – | > 100 | > 100 | > 100
CC(=O)O[C@H]1C(=O)[C@@]2(C)[C@H]([C@H](OC(=O)c3ccccc3)[C@]3(O)C[C@H](OC(=O)[C@H](O)[C@@H](NC(=O)c4ccc(N(C)C)cc4)c4ccccc4)C(C)=C1C3(C)C)[C@]1(OC(C)=O)CO[C@@H]1C[C@@H]2O | 0.00632 | > 50 | 2.34 | > 18.5 | > 45.1 | > 50 | > 21.9 | > 50 | – | > 50
O=[N+]([O-])C(C(Cl)=C(Cl)Cl)=C(n1cncn1)n1cncn1 | > 64.1 | 51 | 22 | > 100 | > 100 | 35.3 | > 100 | > 100 | – | 59.9
Cc1ccc(S(=O)(=O)NC(=O)NC(CCC(N)=O)C(=O)O)cc1 (stereo not drawn) | > 100 | > 100 | > 100 | > 100 | > 100 | > 100 | > 100 | > 100 | > 100 | –
O=C1NC(=Nc2ccccc2)C(=Nc2ccccc2)N1c1ccccc1 | 42.9 | 33.2 | 76.3 | 51.1 | 30.8 | 34 | 72.8 | – | 25.6 | 31.5
C1=NCCOCCN=Cc2ccc(cc2)OCc2cccc(n2)COc2ccc1cc2 | > 100 | – | > 100 | > 100 | > 100 | > 100 | > 100 | > 100 | > 100 | > 100
NCCCCC(NC(=O)C(N)Cc1ccc(O)cc1)C(=O)NC(Cc1ccc(O)cc1)C(=O)NC(CCCCN)C(=O)ON1C(=O)CCC1=O (stereo not drawn) (H-YKYK-OSu; configuration not given here) | > 100 | > 100 | – | > 100 | > 100 | – | > 100 | > 100 | > 100 | > 100
COC(=O)C1(O)C(c2ccccc2)NC2(C)CCCC21 (stereo not drawn) | > 100 | > 100 | > 100 | – | > 100 | > 100 | > 100 | > 100 | > 100 | –
O=c1[nH]nc(-c2ccc(F)cc2)cc1-c1ccccc1 | > 100 | > 100 | > 100 | > 100 | > 100 | > 100 | > 100 | > 100 | – | > 100
COc1ccc2c(c1OC)C(=O)O[C@@H]2[C@H]1c2c(cc3c(c2OC)OCO3)CCN1C | 67.4 | > 100 | > 100 | > 100 | – | > 100 | > 100 | > 100 | > 100 | –
